Values of other authors in patent EP1574563B1, “Use of detergent tablets” (UNILEVER N.V., priority 2004, dated 2005).
Like-named read-outs stand apart in the source and are kept apart here.

[1] = other common materials, by contrast, at 20°C

Water Solubility (g/100g) (highly water-soluble materials, grams of solid required to form a saturated solution in 100 grams of water at 20°C)	Compound	Water Solubility (g/100g) [1]
–	O=P(O)(O)OP(=O)(O)OP(=O)(O)O [Sodium tripolyphosphate anhydrous]	15 g/100g
–	O=BO[O-].[Na+] [Sodium perborate anhydrous]	3.7 g/100g
>100 g/100g	NC(N)=O [Urea]	–
